The text below walks through data of ChEMBL document CHEMBL1138629, “Synthesis of 61-bis(1-adamantylcarbamoyl)-1,2-methano[60]fullerene and its antagonistic effect on haloperidol-induced catalepsy in mice” (Bioorg Med Chem Lett, 2004).

For the assay, the target named is T1, Fatty-acid amide hydrolase 1 (Mus musculus, UniProt O08914).
T1 sequence (O08914 whole entry): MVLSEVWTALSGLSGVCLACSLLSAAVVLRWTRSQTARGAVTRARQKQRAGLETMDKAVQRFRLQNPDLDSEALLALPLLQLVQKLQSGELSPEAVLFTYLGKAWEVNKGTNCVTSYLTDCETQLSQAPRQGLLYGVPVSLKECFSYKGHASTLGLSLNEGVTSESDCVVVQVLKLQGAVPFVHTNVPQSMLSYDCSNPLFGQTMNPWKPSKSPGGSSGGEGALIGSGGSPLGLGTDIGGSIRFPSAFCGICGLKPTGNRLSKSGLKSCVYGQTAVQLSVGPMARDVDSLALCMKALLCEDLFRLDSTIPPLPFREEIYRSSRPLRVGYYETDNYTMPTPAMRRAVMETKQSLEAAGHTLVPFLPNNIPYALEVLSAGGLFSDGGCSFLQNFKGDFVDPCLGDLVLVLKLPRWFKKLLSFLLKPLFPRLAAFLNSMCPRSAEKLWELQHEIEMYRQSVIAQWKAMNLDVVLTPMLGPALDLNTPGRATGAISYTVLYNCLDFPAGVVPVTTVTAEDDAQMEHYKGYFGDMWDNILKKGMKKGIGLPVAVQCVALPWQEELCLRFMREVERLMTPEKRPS
Briefly: Inhibitory concentration against mouse fatty acid amide hydrolase. In kind it is functional.

A word on the IC50: it is the concentration that gives 50% inhibition. Read a high IC50 as a need for much substance. For the compound `NC(=O)CCC/C=C\C/C=C\C/C=C\C/C=C\CCCCCC12CC3CC(CC(C3)C1)C2`, it took 37.4 µM to reach half-maximal inhibition (IC50).
